Reference: paper PMC3974779, “Pterostilbene-Isothiocyanate Conjugate Suppresses Growth of Prostate Cancer Cells Irrespective of Androgen Receptor Status” (PLoS ONE, 2014)
Residues, ends and D or L forms follow the SMILES beside them. *: point of attachment. Cbz = O=C(OCc1ccccc1)*; CH2F = FC*

Columns and labels:
GRIP-1 in LNCaP cells = experiment: Immunoblot of AR co-activators; format: cell-based, human; settings: DHT treatment
Protocol: (§1) The whole-cell lysates were prepared as described previously in immunoprecipitation (IP) buffer containing 50 mM Tris-HCl (pH 8.0), 150 mM NaCl, 5 mM EDTA, and 1% Triton X-100. Protein aliquots of 500 μg were then incubated overnight at 4°C using 2 μg of antibody directed against AR. The Protein A-Cl Agarose beads were then added and further incubated for 6 h at 4°C. The immunoprecipitates were washed four times with the IP buffer and the immunocomplexes were recovered by boiling in SDS sample buffer. Finally the western blot was carried out using anti-AR, anti-SRC-1 and anti-GRIP-1 antibodies (Santa Cruz, CA, USA). For western blot analysis, the cell lysates were prepared after harvesting them in lysis buffer. About 40 μg of total protein was electrophoresed by 12% SDS-PAGE, and the western blotting was carried out using standard protocol. In brief, the analyzed proteins were transferred to nylon membranes. The blots were then blocked with TBST buffer (20 mM Tris-Cl, pH 7.5, 150 mM sodium chloride, 0.05% Tween-20) containing 5% skim milk powder. They were then washed with TBST buffer and incubated overnight at 4°C with the same buffer containing appropriate amounts of primary antibodies: caspase-3, Bax, Bcl-2, Akt, p-Akt, ERK, p-ERK, AR, SRC-1, GRIP-1 (1∶500) and β-actin (1∶1000). The blots were then washed and incubated with anti-rabbit secondary antibody (1∶20,000) conjugated with horseradish peroxidase (HRP). Color development was performed in the dark by using an ECL kit (Amersham, GE Healthcare, Buckinghamshire, UK). The developed blots were subjected to densitometric analysis by ImageJ 1.43 software (NIH, USA) using β-actin as internal control.

SRC-1 in LNCaP cells = experiment: Immunoblot of AR co-activators; format: cell-based, human; settings: DHT treatment
Protocol: as §1

[1] = tested on: p53 protein in LNCaP cells; experiment: Immunoblot of p53 with p53 inhibitor; format: cell-based, human; settings: 20 μM PFT-α, 20 and 40 μM conjugate, 24 h
Protocol: The whole-cell lysates were prepared as described previously in immunoprecipitation (IP) buffer containing 50 mM Tris-HCl (pH 8.0), 150 mM NaCl, 5 mM EDTA, and 1% Triton X-100. Protein aliquots of 500 μg were then incubated overnight at 4°C using 2 μg of antibody directed against AR. The Protein A-Cl Agarose beads were then added and further incubated for 6 h at 4°C. The immunoprecipitates were washed four times with the IP buffer and the immunocomplexes were recovered by boiling in SDS sample buffer. Finally the western blot was carried out using anti-AR, anti-SRC-1 and anti-GRIP-1 antibodies (Santa Cruz, CA, USA). For western blot analysis, the cell lysates were prepared after harvesting them in lysis buffer. About 40 μg of total protein was electrophoresed by 12% SDS-PAGE, and the western blotting was carried out using standard protocol. In brief, the analyzed proteins were transferred to nylon membranes. […]
Since there was no significant difference in the number of apoptotic cells between conjugate treated LNCaP (wild type p53) and PC-3 (p53 null) cells (p<0.05), it was intriguing to check if p53 has any role in conjugate induced apoptosis of PCa cells. […] Next we determined the effect of p53-inhibition on conjugate induced cell death by using MTT assay.

COS-1 cells = experiment: MTT cytotoxicity assay; format: cell-based; settings: Chlorocebus aethiops, COS-1 noncancer cells, 24 h exposure, read-out: IC50 value (50% growth inhibition)
Protocol: (§2) MTT assay was carried out as described previously. In brief, 5×10^3 cells in 200 μl of medium were seeded in 96-well plates (Griener, Germany). After 24 h, the cells were treated with various concentrations (0.1, 1, 10, 100 and 1000 μM) of RESV, PTER and conjugate. The control cells were treated with 0.1% DMSO (vehicle control). The cultured cells were assayed after 24 h by adding 20 μl of 5 mg/ml MTT followed by incubating at 37°C for 4 h. The MTT containing media was then aspirated and 200 μl DMSO (Himedia, Mumbai, India) was added to dissolve the formazone crystals. The optical density (OD) was measured at 570 nm using ELISA plate reader (Fluostar optima, BMG Labtech, Germany). The percentage inhibition was calculated as: [drawing 1]
(§3) The dose response curve and IC50 values were obtained by nonlinear regression analysis [non-linear regression (sigmoidal dose response with variable slope)] using Graph Pad Prism, version 5.02 software (Graph Pad Software Inc., CA, USA).

CHO cells = experiment: MTT cytotoxicity assay; format: cell-based; settings: Cricetulus griseus, CHO noncancer cells, 24 h exposure, read-out: IC50 value (50% growth inhibition)
Protocol: as §2, §3

LNCaP cells [2] = experiment: MTT cytotoxicity assay; format: cell-based; settings: Homo sapiens, 24 h, 24 h exposure, mean ± SEM, read-out: IC50 value (50% growth inhibition)
Protocol: as §2, §3

PC-3 cells [3] = experiment: MTT cytotoxicity assay; format: cell-based; settings: Homo sapiens; PC-3, MTT, 24 h exposure, mean ± SEM; read-out: IC50 value (50% growth inhibition)
Protocol: as §2, §3

AR in LNCaP cells = experiment: Immunofluorescence staining of endogenous AR; format: cell-based, human; settings: varying doses of conjugate, 20 μM RESV, DHT
Protocol: The cells were then incubated with AR rabbit polyclonal antibody diluted 1∶200 in blocking buffer for 1 h at RT. Finally, the cells were washed with PBS and incubated with FITC-labelled anti-rabbit secondary antibody diluted 1∶1000 in blocking buffer for 30 min at room temperature. The cells were then observed under a fluorescence microscope (Zeiss, Axiovert 25, Germany).

[4] = tested on: caspase-3 expression in PC-3 cells; experiment: Immunoblot analysis of apoptotic markers; format: cell-based, human; settings: PC-3, highest dose (40 μM), immunoblot densitometry
Protocol: as §1

[5] = tested on: caspase-3 expression in LNCaP cells; experiment: Immunoblot analysis of apoptotic markers; format: cell-based, human; settings: highest dose (40 μM), immunoblot densitometry
Protocol: as §1

p-Akt in PC-3 cells = experiment: Immunoblot of Akt phosphorylation; format: cell-based, human; settings: 24 h
Protocol: as §1
(§4) The siRNAs against human Akt and ERK and control siRNA were purchased commercially from Santa Cruz Biotechnology (USA). The LNCaP and PC-3 PCa cells were transfected with siRNAs (at a final concentration of 100 nM) using polyfect transfection reagent (Qiagen, CA, USA) according to manufacturer’s instructions. After 24 h of transfection, the cells were washed properly and replaced with fresh medium. The cells were then treated with 20 μM conjugate for 24 h, and finally protein lysates were prepared on completion of treatment. The levels of p-Akt, p-ERK and cleaved caspase-3 expressions were detected by Western blot analysis.

p-Akt in LNCaP cells = experiment: Immunoblot of Akt phosphorylation; format: cell-based, human; settings: below 20 μM, 24 h
Protocol: as §1, §4

p-ERK in PC-3 cells = experiment: Immunoblot of ERK phosphorylation; format: cell-based, human; settings: 24 h
Protocol: as §1, §4

[6] = tested on: caspase-3 activity in LNCaP cells; experiment: Caspase colorimetric protease assay; format: cell-based, human; settings: 24 h
Protocol: (§5) Caspase activity was determined using ApoTarget caspase colorimetric protease assay sampler kit (KHZ1001; Invitrogen) according to the manufacturer’s instructions. Briefly, both the PCa cells were treated with increasing doses of conjugate and RESV for 24 h. The cells were then collected, washed in PBS, and lysed in 50 μl lysis buffer on ice for 10 min. After centrifugation, the supernatant containing 150 μg proteins were incubated with 200 μM of caspase-3 (Ac-DEVD-pNA), caspase-8 (Ac-IETD-pNA) and caspase-9 (Ac-LEHD-pNA) substrates respectively in reaction buffer at 37°C for 1 h in 96 well flat bottom plate. Levels of released pNA were then measured at 405 nm wavelength with ELISA plate reader (Fluostar optima, BMG Labtech, Germany). The fold-increase in caspase-3, -8, and -9 activities were determined by direct comparison to the level of un-induced control. For the caspase inhibitor assay, cells were pretreated with a synthetic pan-caspase inhibitor (Z-VAD-FMK), caspase-8 inhibitor (Z-IETD-FMK) and caspase-9 inhibitor (Z-LEHD-FMK) for 1 h before the addition of conjugate and the cell death were analyzed by MTT assay as discussed earlier.

[7] = tested on: caspase-9 activity in PC-3 cells; experiment: Caspase colorimetric protease assay; format: cell-based, human; settings: PC-3, 10, 20 and 40 μM, 24 h
Protocol: as §5

[8] = tested on: caspase-8 activity in PC-3 cells; experiment: Caspase colorimetric protease assay; format: cell-based, human; settings: PC-3, 24 h, high dose
Protocol: as §5

[9] = tested on: caspase-9 activity in LNCaP cells; experiment: Caspase colorimetric protease assay; format: cell-based, human; settings: 24 h
Protocol: as §5

[10] = tested on: caspase-3 activity in PC-3 cells; experiment: Caspase colorimetric protease assay; format: cell-based, human; settings: PC-3, 10, 20 and 40 μM, 24 h
Protocol: as §5

[11] = tested on: AR protein in LNCaP cells; experiment: Immunoblot of AR protein; format: cell-based, human
Protocol: as §1

LNCaP cells [12] = experiment: Caspase inhibitor assay (conjugate-induced cell death, MTT); format: cell-based, human; settings: 20 μM caspase inhibitor 1 h before 20 μM conjugate, MTT after 24 h
Protocol: as §5
(§6) Figure 2 The conjugate induces G2/M phase arrest and caspase dependent cell death in prostate cancer cells. Cell cycle distribution of (A) PC-3 and (B) LNCaP cells upon treatment with varying doses of conjugate. Results are presented as mean ± SEM of three independent experiments. *represents statistically significant difference with respect to vehicle treated PC-3 and LNCaP cells respectively corresponding to each stage of cell cycle at p<0.05. (C) The effects of varying doses of conjugate (left panel) and resveratrol (right panel) on caspase-8, -9 and -3 activities in PC-3 and (D) LNCaP cells. Results are the mean ± SEM of three independent experiments. *represents statistically significant difference with respect to control cells for respective caspases tested at p<0.05. (E) The effect of caspase inhibitors on conjugate-induced cell death in PC-3 and (F) LNCaP cells. The cells were pre-treated with 20 μM of respective caspase inhibitors: Z-LEHDFMK (caspase-9 inhibitor); Z-IETDFMK (caspase-8 inhibitor); and Z-VAD-FMK (general caspase inhibitor) for 1 h before the addition of 20 μM conjugate. Cell death was measured 24 h after conjugate treatment using MTT assay. Data are the mean ± SEM of three independent experiments. *and # represents statistically significant difference with respect to control (vehicle) and conjugate treated cells respectively for each cell lines at p<0.05. ns, non-significant.

PC-3 cells [13] = experiment: as above; format: cell-based, human; settings: PC-3, 20 μM caspase inhibitor 1 h before 20 μM conjugate, MTT after 24 h
Protocol: as §5, §6

In the case of `C[C@]12CCC(=O)C[C@@H]1CC[C@@H]1[C@@H]2CC[C@]2(C)[C@@H](O)CC[C@@H]12` [DHT, dihydrotestosterone, reference compound], the “change in expression of GRIP-1” value (GRIP-1 in LNCaP cells) is reported as “no significant change” and the “increase in expression of SRC-1” value (SRC-1 in LNCaP cells) is reported as 1.2 fold.

For `Cc1ccc(C(=O)Cn2c3c(sc2=N)CCCC3)cc1` [PFT-α, pifithrin-α, reference compound], the “expression of p53 protein” value [1] was “significantly down regulated”.

Work on `COc1cc(/C=C/c2ccc(O)cc2)cc(OC)c1` [Pterostilbene] yielded an IC50 (COS-1 cells) of over 100 µM, an IC50 (CHO cells) of over 100 µM and an IC50 (LNCaP cells [2]) of about 66.4 µM. For the same compound, the IC50 (PC-3 cells [3]) was 75 ± 2.55 µM.

`Oc1ccc(/C=C/c2cc(O)cc(O)c2)cc1` [Resveratrol, reference compound] showed an IC50 (COS-1 cells) of over 100 µM, an IC50 (CHO cells) of over 100 µM and an IC50 (LNCaP cells [2]) of about 82.2 µM. The IC50 (PC-3 cells [3]) was 95 ± 1.13 µM, the AR immunofluorescence intensity (AR in LNCaP cells) was “marginal decrease” and the “enhancement of caspase-3 expression” value [4] was 3.5 folds. The “enhancement of caspase-3 expression” value [5] was 4.5 folds, the “decrease in level of p-Akt” value (p-Akt in PC-3 cells; PC-3, 20 μM) was “about 1.2 folds” and the “decrease in level of p-Akt” value (p-Akt in PC-3 cells; PC-3, 40 μM) was about 1.6 folds. The “effect on level of p-Akt” value (p-Akt in LNCaP cells) was “negligible effects”, the “reduction in level of p-ERK” value (p-ERK in PC-3 cells; PC-3, 20 μM) was 1.3 folds and the “reduction in level of p-ERK” value (p-ERK in PC-3 cells; PC-3, 40 μM) was 1.8 folds. For the same compound, the caspase-3 activity [6] was “significant increase”, the caspase-9 enzyme activity [7] was “dose-dependent augmentation” and the caspase-8 activity [8] was “marginal increase”. The caspase-9 activity [9] was “significant increase”, the caspase-3 enzyme activity [10] was “dose-dependent augmentation” and the “inhibition of AR protein levels” value ([11]; 10 and 20 μM, absence of DHT) was “did not show any significant inhibition”. For the same compound, the “inhibition of DHT induced AR protein levels” value ([11]; till 20 μM, 10 nM DHT) was “did not show any significant inhibition”.

For `COC(=O)CC[C@H](NC(=O)[C@H](CC(C)C)NC(=O)OCc1ccccc1)C(=O)N[C@@H](Cc1c[nH]cn1)C(=O)N[C@@H](CC(=O)OC)C(=O)CF` [Z-LEHD-FMK] (Cbz-LE(OMe)HD(OMe)-CH2F), the “inhibition of conjugate induced cell death/apoptosis” value (LNCaP cells [12]) was “almost completely blocked”.

With Cbz-Val-Ala-Asp-CH2F the “inhibition of conjugate induced cell death/apoptosis” value (LNCaP cells [12]) was “significant inhibition of cell death” and the “inhibition of conjugate induced cell death” value (PC-3 cells [13]) was “significant inhibition of cell death”.

For “Z-IETD-FMK: caspase-8 specific inhibitor”, the “inhibition of conjugate induced cell death/apoptosis” value (LNCaP cells [12]) was “only partially inhibited” and the “inhibition of conjugate induced cell death” value (PC-3 cells [13]) was “completely ineffective”.
